Assay results published in patent US20130344055A1, “ANTIMICROBIAL AGENTS” (priority 2010, published 2013).
Read-outs that look alike come from different tables or passages of the source.

Legend:
P. putida G1 = test: In vitro antibacterial activity (log reduction) of modified OBPgpLys fusion variants; assay type: cell-based; settings: 10^6 cells/ml, 30 minutes at RT
Procedure: (§1) Exponential growing Gram-negative bacterial cells (OD600 nm=0.6) were 100-fold diluted to a final density of about 10^6 cells/ml in 5 mM HEPES pH 7.4 and incubated for 30 minutes at room temperature without shaking with the different modified OBPgpLYS variants (in Elution Buffer in an end concentration of 1500 nM). After incubation cell suspensions and as a control untreated bacterial cells without any added modified OBPgpLYS variant were diluted three times (respectively 10^5-10^4-10^3 cells/ml) in 1× concentrated PBS buffer and 100 μl of each dilution was plated out on LB-medium. […] All samples were replicated in threefold. Averages +/− standard deviations are represented.
(§2) The production of OBPgpLys with two peptide stretches is described above in Example 1. Moreover, the purification of the fusion proteins and the antimicrobial activity assay was performed as described already in Example 1.

P. aeruginosa PAO1p = test: as above; assay type: cell-based; settings: 10^6 cells/ml, 30 minutes at RT
Procedure: as §1, §2

E. coli XL1 blue = assay type: cell-based; settings: for Average log reduction, E. coli. X1-1: Table 9, with EDTA 0.5 mM
Procedure: (§3) . After incubation cell suspensions and as a control untreated bacterial cells without any added modified OBPgpLYS variant were diluted three times (respectively 10^5-10^4-10^3 cells/ml) in 1× concentrated PBS buffer and 100 μl of each dilution was plated out on LB-medium. […] All samples were replicated in threefold. Averages +/− standard deviations are represented.
as §2

S. typhimurium LT2 = test: In vitro antibacterial activity (log reduction) of modified OBPgpLys fusion variants; assay type: cell-based, Salmonella typhimurium; settings: 10^6 cells/ml, 30 minutes at RT; for Average log reduction, Salmonella typhimurium LT2: Table 9, with EDTA 0.5 mM; for Average log reduction, S. typhimurium LT2: 1500 nM protein
Procedure: as §3, with “After” for “. After”
as §2

Staphylococcus bacteria = test: In vitro antibacterial activity of Lysostaphin and LysK fusion variants; assay type: cell-based; settings: with EDTA 0.5 mM, 10^6 cells/ml, 30 minutes at RT
[1] = with EDTA 0.5 mM (B), 1500 nM protein
[2] = without EDTA (A), 1500 nM protein
[3] = 10^6 cells/ml, 30 minutes at RT
[4] = with EDTA 0.5 mM (B), 1500 nM protein, 10^6 cells/ml, 30 minutes at RT
[5] = without EDTA (A), 1500 nM protein, 10^6 cells/ml, 30 minutes at RT

Molecule	Average log reduction, P. putida G1 (P. putida G1; [1]) [log]	Average log reduction, P. aeruginosa PAO1p (P. aeruginosa PAO1p; [1]) [log]	Average log reduction, E. coli XL1 blue (E. coli XL1 blue) [log]	Average log reduction, Salmonella typhimurium LT2 (S. typhimurium LT2)	Average log reduction, S. typhimurium LT2 (S. typhimurium LT2; with EDTA 0.5 mM (B)) [log]	Average log reduction, S. typhimurium LT2 (S. typhimurium LT2; without EDTA (A)) [log]	Average log reduction, P. putida G1 (P. putida G1; Table 9, with EDTA 0.5 mM)	Average log reduction, P. putida G1 (P. putida G1; [2]) [log]	Average log reduction, P. aeruginosa PAO1p (P. aeruginosa PAO1p; Table 9, with EDTA 0.5 mM)	Average log reduction, P. aeruginosa PAO1p (P. aeruginosa PAO1p; [2]) [log]	Average log reduction, E. coli. X1-1 (E. coli XL1 blue; [3])	Average log reduction, E. coli XL1 blue (E. coli XL1 blue; [4]) [log]	Average log reduction, E. coli XL1 blue (E. coli XL1 blue; [5]) [log]	Average log reduction, Staphylococcus (Staphylococcus bacteria; Lysostaphin variants)	Average log reduction, Staphylococcus (Staphylococcus bacteria; LysK variants)
O=C(O)CN(CCN(CC(=O)O)CC(=O)O)CC(=O)O [EDTA, reference compound]	0.65	1.82	0.85	–	–	–	–	–	–	–	–	–	–	–	–
Lycotoxin1-PK-OBPgpLYS: antimicrobial peptide Lycotoxin 1, then PK, N-terminally fused to endolysin OBPgpLys	2.26	3.73	–	+ (+: 1 log)	0.29	0.17	++ (++: 2-3 log)	0.56	+++ (+++: 4 or more logs)	0.08	++ (++: 2-3 log)	0.90	0.41	–	–
Lysostaphin-Sarcotoxin IA: Lysostaphin fusion variant with one peptide stretch, Sarcotoxin IA, C-terminal	–	–	–	–	–	–	–	–	–	–	–	–	–	++ (++: 2-3 log)	–
Lysostaphin: bacteriocin degrading Staphylococcus cell walls	–	–	–	–	–	–	–	–	–	–	–	–	–	+ (+: 1 log)	–
OBPgpLYS: endolysin of Pseudomonas putida phage OBP, without peptide stretch	–	–	–	+ (+: 1 log)	–	–	+ (+: 1 log)	–	+ (+: 1 log)	–	+ (+: 1 log)	–	–	–	–
PK-Pentapeptide-OBPgplys: polycationic peptide PK, then hydrophobic pentapeptide FFVAP, N-terminally fused to endolysin OBPgpLys	3.24	4.00	–	+ (+: 1 log)	0.42	0.22	+++ (+++: 4 or more logs)	0.80	+++ (+++: 4 or more logs)	0.95	++ (++: 2-3 log)	2.12	1.69	–	–
PK-α4-OBPgpLys: polycationic peptide PK, then α4-helix of T4-lysozyme, N-terminally fused to endolysin OBPgpLys	2.97	5.07	–	+ (+: 1 log)	0.29	0.23	++ (++: 2-3 log)	0.01	+++ (+++: 4 or more logs)	1.10	++ (++: 2-3 log)	0.86	0.54	–	–
Parasin1-PK-OBPgpLys: antimicrobial peptide Parasin 1, then PK, N-terminally fused to endolysin OBPgpLys	2.32	4.92	–	+ (+: 1 log)	0.28	0.27	++ (++: 2-3 log)	0.16	+++ (+++: 4 or more logs)	0.75	++ (++: 2-3 log)	1.00	0.70	–	–
Sarcotoxin IA-Lysostaphin: Lysostaphin fusion variant with one peptide stretch, Sarcotoxin IA, N-terminal	–	–	–	–	–	–	–	–	–	–	–	–	–	++ (++: 2-3 log)	–
Walmagh1-PK-OBPgpLYS: hydrophobic peptide Walmagh 1, then PK, N-terminally fused to endolysin OBPgpLys	3.22	3.66	–	–	0.17	0.12	–	0.29	–	0.20	–	1.70	1.46	–	–
Walmagh2-PK-OBPgplys: amphiphatic peptide Walmagh 2, then PK, N-terminally fused to endolysin OBPgpLys	2.60	3.91	–	+ (+: 1 log)	0.25	0.17	++ (++: 2-3 log)	0.00	+++ (+++: 4 or more logs)	0.57	++ (++: 2-3 log)	1.86	1.68	–	–
α4-PK-OBPgpLys: α4-helix of T4-lysozyme, then polycationic peptide PK, N-terminally fused to endolysin OBPgpLys	2.98	5.23	–	+ (+: 1 log)	0.35	0.22	++ (++: 2-3 log)	0.02	+++ (+++: 4 or more logs)	0.59	+ (+: 1 log)	0.58	0.55	–	–
PK2-LysK: LysK fusion variant with one peptide stretch, PK2 (protein) MKRKKRKKRKKRKKRKKRKAKTQAEINKRLDAYAKGTVDSPYRVKKATSYDPSFGVMEAGAIDADGYYHAQCQDLITDYVLWLTDNKVRTWGNAKDQIKQSYGTGFKIHENKPSTVPKKGWIAVFTSGSYEQWGHIGIVYDGGNTSTFTILEQNWNGYANKKPTKRVDNYYGLTHFIEIPVKAGTTVKKETAKKSASKTPAPKKKATLKVSKNHINYTMDKRGKKPEGMVIHNDAGRSSGQQYENSLANAGYARYANGIAHYYGSEGYVWEAIDAKNQIAWHTGDGTGANSGNFRFAGIEVCQSMSASDAQFLKNEQAVFQFTAEKFKEWGLTPNRKTVRLHMEFVPTACPHRSMVLHTGFNPVTQGRPSQAIMNKLKDYFIKQIKNYMDKGTSSSTVVKDGKTSSASTPATRPVTGSWKKNQYGTWYKPENATFVNGNQPIVTRIGSPFLNAPVGGNLPAGATIVYDEVCIQAGHIWIGYNAYNGNRVYCPVRTCQGVPPNQIPGVAWGVFK	–	–	–	–	–	–	–	–	–	–	–	–	–	–	++ (++: 2-3 log)
LysK: endolysin LysK (protein, Staphylococcus aureus Phage K) MAKTQAEINKRLDAYAKGTVDSPYRVKKATSYDPSFGVMEAGAIDADGYYHAQCQDLITDYVLWLTDNKVRTWGNAKDQIKQSYGTGFKIHENKPSTVPKKGWIAVFTSGSYEQWGHIGIVYDGGNTSTFTILEQNWNGYANKKPTKRVDNYYGLTHFIEIPVKAGTTVKKETAKKSASKTPAPKKKATLKVSKNHINYTMDKRGKKPEGMVIHNDAGRSSGQQYENSLANAGYARYANGIAHYYGSEGYVWEAIDAKNQIAWHTGDGTGANSGNFRFAGIEVCQSMSASDAQFLKNEQAVFQFTAEKFKEWGLTPNRKTVRLHMEFVPTACPHRSMVLHTGFNPVTQGRPSQAIMNKLKDYFIKQIKNYMDKGTSSSTVVKDGKTSSASTPATRPVTGSWKKNQYGTWYKPENATFVNGNQPIVTRIGSPFLNAPVGGNLPAGATIVYDEVCIQAGHIWIGYNAYNGNRVYCPVRTCQGVPPNQIPGVAWGVFK	–	–	–	–	–	–	–	–	–	–	–	–	–	–	+ (+: 1 log)
